Reference: patent US7122294B2, “Photoacid generators with perfluorinated multifunctional anions” (3M Innovative Properties Company, priority 2003, dated 2006)
Values joined by “and” are separate entries in the source; they are usually repeats but may differ in a detail not shown here. Identical values can stand only once.

What was measured:
[1] = Photo-DSC/DSC cationic curing activity of PAGs in ERL-4221; set-up: PDSC Peak Max / PDSC Induction Time: unit not given here; settings: for PDSC Energy: ERL-4221, 1.0% PAG, 0.1% ITX, light exposure 5 min at 30° C.; for DSC after PDSC Onset Temp / DSC after PDSC Energy / DSC after PDSC Peak Max / PDSC Induction Time / DSC Only (dark) Energy / DSC Only (dark) Onset Temp / DSC Only (dark) Peak Max / PDSC Peak Max: ERL-4221; for DSC after PDSC Onset Temp: DSC scan 10° C./minute after light exposure; for DSC after PDSC Energy / DSC after PDSC Peak Max: DSC scan after light exposure; for PDSC Induction Time: light exposure at 30° C.; for DSC Only (dark) Energy / DSC Only (dark) Onset Temp / DSC Only (dark) Peak Max: no prior light exposure; for PDSC Peak Max: time to peak maximum of curing exotherm at 30° C.
Experimental: (§1) Photo-DSC/DSC: Standard (hermetic) liquid sample pans were used. Sample size was kept in the 6 to 8 mg range. Samples were tested using a Dupont Photo-DSC/DSC instrument (available from DuPont, Wilmington, Del.). The light source was a 200 W Hg lamp that delivered about 60 mw/cm at the sample. Samples were exposed in open pans for 5 minutes to the light source at 30° C. then removed from the instrument, sealed and a standard DSC scan run at 10° C./minute to 300° C. A separate DSC experiment was carried out using a sealed sample pan and no prior light exposure to determine the dark reactivity of these PAGs. Comparison of the DSC traces before and after light exposure enables differentiation between the thermal reactivity of the PAGs (in the dark) and their photochemical activity.
(§2) This example describes photo-DSC/DSC experiments designed to quantitatively compare the relative cationic curing reactivities of PAGs of the present invention containing difunctional fluoroorganic sulfonate anions with related PAGs having identical cations and monofunctional perfluoroalkanesulfonate anions. Relative reactivities were measured in three different cationically polymerizable monomer systems, including two different types of epoxies and one vinyl ether.
(§3) The photo-DSC experiment provides information on the photo-cure speed at 30° C. as measured by the induction time (onset) and time to reach the peak maximum in the curing exotherm. […] The energy released under the curing exotherm is a measure of the extent of cure; larger values mean more cure has taken place during the light exposure. […] Comparison with the DSC traces recorded with no prior light exposure provides a measure of the increase in activity after photoactivation of the PAG.
(§4) General: Stock solutions of three cationically curable monomers were prepared as shown in Table 3 with 0.1% (w/w) isopropylthioxanthone (ITX). Epon 828 is a difunctional glycidyl ether epoxy from Shell, ERL-4221 is a difunctional cycloaliphatic epoxy from Union Carbide and VEX 5015 is a trifunctional vinyl ether from Allied Signal. Because of the low sensitivity of these compositions to room lights, all sample preparation was done with the lab lights on but the hood lights off. All PAGs were formulated at 1.0% by weight in the stock monomer/sensitizer solutions. Into a small aluminum pan was weighed 0.02 g of PAG and 0.04 g of propylene carbonate used to promote dissolution of the PAG in the monomer. The pan was heated briefly on a hot plate set at 100° C. to dissolve the PAG, then 2.0 g the stock monomer/sensitizer solution was added. The solution was briefly heated again on a hot plate set at 100° C. to allow complete mixing of the components, then the solution was allowed to cool to room temperature before using.

[2] = Photo-DSC/DSC cationic curing activity of PAGs in Epon 828; set-up: PDSC Peak Max / PDSC Induction Time: unit not given here; settings: for PDSC Energy: Epon 828, 1.0% PAG, 0.1% ITX, light exposure 5 min at 30° C.; for DSC after PDSC Onset Temp / DSC after PDSC Energy / DSC after PDSC Peak Max / PDSC Induction Time / DSC Only (dark) Energy / DSC Only (dark) Onset Temp / DSC Only (dark) Peak Max / PDSC Peak Max: Epon 828; for DSC after PDSC Onset Temp: DSC scan 10° C./minute after light exposure; for DSC after PDSC Energy / DSC after PDSC Peak Max: DSC scan after light exposure; for PDSC Induction Time: light exposure at 30° C.; for DSC Only (dark) Energy / DSC Only (dark) Onset Temp / DSC Only (dark) Peak Max: no prior light exposure; for PDSC Peak Max: time to peak maximum of curing exotherm at 30° C.
Experimental: as §1, §2, §3, §4

[3] = Photo-DSC/DSC cationic curing activity of PAGs in VEX 5015; set-up: PDSC Peak Max / PDSC Induction Time: unit not given here; settings: for PDSC Energy: VEX 5015, 1.0% PAG, 0.1% ITX, light exposure 5 min at 30° C.; for DSC after PDSC Energy / DSC after PDSC Onset Temp / DSC after PDSC Peak Max / PDSC Induction Time / DSC Only (dark) Onset Temp / PDSC Peak Max: VEX 5015; for DSC after PDSC Energy / DSC after PDSC Onset Temp / DSC after PDSC Peak Max: DSC scan after light exposure; for DSC after PDSC Onset Temp / DSC after PDSC Peak Max / DSC Only (dark) Onset Temp: two values = two exotherms; for PDSC Induction Time: light exposure at 30° C.; for DSC Only (dark) Onset Temp: no prior light exposure; for PDSC Peak Max: time to peak maximum of curing exotherm at 30° C.
Experimental: as §1, §2, §3, §4

[4] = Bio-elimination screening after a single oral dose; assay type: in vivo, male Sprague Dawley rats; settings: for Total F concentration in Liver / Total F concentration in Serum: 30 mg/kg single oral dose; for parent compound recovered in the urine: within the first 28 hours post dose, 19F NMR; for bioelimination compared to PFOS: screenings in rats
Experimental: The objective of this study was to evaluate the potential for oral absorption, distribution, and serum and liver elimination rates of KO3SCF2CF2CF2CF2SO3K and LiO3SCF2CF2CF2COOLi in male Sprague Dawley rats after a single oral dose. Quantitation of fluorinated salt levels and potential metabolites in serum and liver were performed by total organic fluorine analysis.
21 male Sprague Dawley rats (Harlan), 6–8 weeks in age and weighing approximately 150–250 g were treated with a single dose of the test compound, prepared in propylene glycol (suspension of 6 mg/ml propylene glycol), via oral gavage at either 0 mg/kg (control) or 30 mg/kg body weight (Group 1) (3 animals per dose group per designated treatment period). […] Liver and serum samples were collected for total fluorine analysis on each of those days. All the specimens collected at necropsy were temporarily stored in at −70° C. A complete protocol for this study is available (Strategic Toxicology Lab Protocol Number ST-88). Urine samples were collected and analyzed by ^19F NMR on day one and day four (0–4, 4–24 and 76–100 hrs, respectively) post dose in order to determine the concentration of the respective perfluorinated anion.

[5] = Thermal gravimetric analysis (TGA), onset of thermal decomposition; assay type: physicochemical; settings: under nitrogen, ramp 10° C. per minute
Experimental: TGA was performed on a Perkin-Elmer Instruments TGA Model 7 in an open platinum pan. The onset of thermal decomposition, Td, was taken as the thermal decomposition temperature of the photoacid generators and was determined under nitrogen atmosphere using a temperature ramp of 10° C. per minute. The onset temperature was determined by the intersection of tangents to the low temperature portion of the baseline and the first inflection point in the wt % vs. temperature curve.

Row | SMILES | PDSC Energy [1] [J/g] | DSC after PDSC Onset Temp [1] [C.°] | DSC after PDSC Energy [1] [J/g] | DSC after PDSC Peak Max [1] [°C] | PDSC Induction Time [1] | DSC Only (dark) Energy [1] [J/g] | DSC Only (dark) Onset Temp [1] [C.°] | DSC Only (dark) Peak Max [1] | PDSC Peak Max [1] | PDSC Energy [2] [J/g] | DSC after PDSC Onset Temp [2] [C.°] | DSC after PDSC Energy [2] [J/g] | DSC after PDSC Peak Max [2] [°C] | PDSC Induction Time [2] | DSC Only (dark) Energy [2] [J/g] | DSC Only (dark) Onset Temp [2] [C.°] | DSC Only (dark) Peak Max [2] [°C] | PDSC Peak Max [2] | PDSC Energy [3] [J/g] | DSC after PDSC Energy [3] [J/g] | also measured
1 | CC(C)(C)c1ccc([I+]c2ccc(C(C)(C)C)cc2)cc1.O=S(=O)([O-])C(F)(F)C(F)(F)C(F)(F)C(F)(F)F [DTBPI-ONf, reference compound] | 5 | 50 | 577 | 148 | 15.7 | 566 | 150 | 192 | 24 | 10 | 100 | 558 | 190 | 12.5 | 606 | 175 | 232 | 21.2 | 242 | 31 | DSC after PDSC Onset Temp [3]: 125 C.°; DSC after PDSC Peak Max [3]: 159 °C; PDSC Induction Time [3]: 0.9; DSC Only (dark) Onset Temp [3]: 100, C.° and 155 C.°; PDSC Peak Max [3]: 2.8
2 | CC(C)(C)c1ccc([I+]c2ccc(C(C)(C)C)cc2)cc1.O=S(=O)([O-])C(F)(F)C(F)(F)C(F)(F)C(F)(F)C(F)(F)C(F)(F)C(F)(F)C(F)(F)F [DTBPI-PFOS, reference compound] | 4 | 65 | 560 | 155 | 14.8 | 583 | 150 | 190 | 22.4 | 4 | 100 | 566 | 197 | 18.9 | 608 | 175 | 238 | 28.4 | 230 | 24 | DSC after PDSC Onset Temp [3]: 140 C.°; DSC after PDSC Peak Max [3]: 163 °C; PDSC Induction Time [3]: 1.1; DSC Only (dark) Onset Temp [3]: 100, C.° and 160 C.°; PDSC Peak Max [3]: 3.2
3 | O=S(=O)([O-])C(F)(F)C(F)(F)C(F)(F)C(F)(F)S(=O)(=O)[O-].[K+].[K+] [KO3SCF2CF2CF2CF2SO3K, KO3S(CF2)4SO3K] | – | – | – | – | – | – | – | – | – | – | – | – | – | – | – | – | – | – | – | – | Total F concentration in Liver ([4]; rat, Day 0): ND (ND = not detectable within limits of test (0.3 ppm)); Total F concentration in Serum ([4]; rat, Day 0): (ND) (ND = not detectable within limits of test (0.3 ppm)); Total F concentration in Liver ([4]; rat, Day 1): 0.6 ppm; Total F concentration in Serum ([4]; rat, Day 1): (ND) (ND = not detectable within limits of test (0.3 ppm)); Total F concentration in Liver ([4]; rat, Day 4): ND (ND = not detectable within limits of test (0.3 ppm)); Total F concentration in Serum ([4]; rat, Day 4): (ND) (ND = not detectable within limits of test (0.3 ppm)); Total F concentration in Liver ([4]; rat, Day 8): ND (ND = not detectable within limits of test (0.3 ppm)); Total F concentration in Serum ([4]; rat, Day 8): (ND) (ND = not detectable within limits of test (0.3 ppm)); Total F concentration in Liver ([4]; rat, Day 14): ND (ND = not detectable within limits of test (0.3 ppm)); Total F concentration in Serum ([4]; rat, Day 14): (ND) (ND = not detectable within limits of test (0.3 ppm)); parent compound recovered in the urine ([4]; rat, single oral dose): 11%; bioelimination compared to PFOS [4]: more readily bioeliminate compared to PFOS
4 | O=C(O)C(F)(F)C(F)(F)C(F)(F)S(=O)(=O)O [LiO3SCF2CF2CF2CO2Li, LiO3S(CF2)3CO2Li] | – | – | – | – | – | – | – | – | – | – | – | – | – | – | – | – | – | – | – | – | Total F concentration in Liver ([4]; rat, Day 0): 0.5 ppm; Total F concentration in Serum ([4]; rat, Day 0): (ND) (ND = not detectable within limits of test (0.3 ppm)); Total F concentration in Liver ([4]; rat, Day 1): ND (ND = not detectable within limits of test (0.3 ppm)); Total F concentration in Serum ([4]; rat, Day 1): (ND) (ND = not detectable within limits of test (0.3 ppm)); Total F concentration in Liver ([4]; rat, Day 4): ND (ND = not detectable within limits of test (0.3 ppm)); Total F concentration in Serum ([4]; rat, Day 4): (ND) (ND = not detectable within limits of test (0.3 ppm)); Total F concentration in Liver ([4]; rat, Day 8): ND (ND = not detectable within limits of test (0.3 ppm)); Total F concentration in Serum ([4]; rat, Day 8): (ND) (ND = not detectable within limits of test (0.3 ppm)); Total F concentration in Liver ([4]; rat, Day 14): ND (ND = not detectable within limits of test (0.3 ppm)); Total F concentration in Serum ([4]; rat, Day 14): (ND) (ND = not detectable within limits of test (0.3 ppm)); estimated half life of elimination via the urinary route ([4]; rat, single oral dose): less than 28 hours; parent compound recovered in the urine ([4]; rat, single oral dose): greater than 96%; bioelimination compared to PFOS [4]: more readily bioeliminate compared to PFOS
5 | CC(C)(C)c1ccc([I+]c2ccc(C(C)(C)C)cc2)cc1.CC(C)(C)c1ccc([I+]c2ccc(C(C)(C)C)cc2)cc1.O=S(=O)([O-])C(F)(F)C(F)(F)C(F)(F)S(=O)(=O)[O-] [PAG1, [(p-(CH3)3C—C6H4)2I^+]2-O3S(CF2)3SO3—] | 7 | 60 | 582 | 148 | 15.1 | 565 | 150 | 203 | 24 | 8 | 100 | 553 | 192 | 16.2 | 576 | 180 | 230 | 27 | 209 | 54 | onset of thermal decomposition (TGA) [5]: 224 °C; PDSC Induction Time [3]: 1.6; DSC Only (dark) Onset Temp [3]: 100, C.° and 160 C.°; PDSC Peak Max [3]: 4.2
6 | O=S(=O)([O-])C(F)(F)C(F)(F)N(C(F)(F)F)C(F)(F)C(F)(F)S(=O)(=O)[O-].c1ccc([S+](c2ccccc2)c2ccccc2)cc1.c1ccc([S+](c2ccccc2)c2ccccc2)cc1 [PAG-3, [(C6H5)3S^+]2CF3N(CF2CF2SO3^−)2] | – | – | – | – | – | – | – | – | – | – | – | – | – | – | – | – | – | – | – | – | onset of thermal decomposition (TGA) [5]: 411 °C
